Source: patent US11135231B2, “Methods and compositions for prevention and treatment of Apicomplexan infections” (Tufts Medical Center, Inc., priority 2016, dated 2021)
Read-outs that look alike come from different tables or passages of the source.

Columns and labels:
P. falciparum strains [1] = tested on: P. falciparum strains; design: key: R = Clinically Resistant; S + Sensitive; details: cited from earlier work
P. falciparum strains [2] = assay: 3H hypoxanthine incorporation assay of P. falciparum strains in human red blood cells; assay type: cell-based, Plasmodium falciparum
Method: The potency of the compounds of the invention against multi-drug resistant P. falciparum strains was tested. Parasites were cultured in 96-well plates in human red blood cells at 0.5% initial parasitemia for 72 hours in the presence of dilutions of tartrolon D/E (specifically, D2 as the starting material in FIG. 11A), purified tartrolon E (FIG. 11C), dihydroartemisinin (DHA, as a positive control in FIG. 11B), or DMSO (as a negative control). Parasites proliferation was then determined by ^3H hypoxanthine incorporation.
Specifically, parasitized red blood cells (pRBCs) were grown in 0.5% Albumax I (Thermo Fisher Scientific). Assays were set up in 96-well plates at 0.5% initial parasitemia and 0.5% hematocrit. Parasites were exposed to various concentrations of Tartrolon D or E and dihydroartemisinin (DHA) for 48 hours and then pulsed with 0.5 microcuries of tritium-labeled hypoxanthine Moravek (MT-700) for another 24 hours. At the end of 72 hours, assay plates were processed through an Inotech cell harvester and collected on Inotech glass fiber filters. Filters were transferred to Omniplate-96 cassettes (Perkin Elmer) and dried overnight at room temperature. About […] of Microscint-O scintillation cocktail (Perkin Elmer) was added to each well. Each well was counted for 2 minutes on a Packard Topcount scintillation counter. The uptake of radiolabeled hypoxanthine by compound-treated pRBCs was compared relative to uptake by DMSO solvent-treated controls. […] The starting material used as the active reagent in FIG. 11C was tartrolon E, purified as follows: extract from the bacterial pellet of the Teredinibacter turnerae T7901 was purified by reversed phase HPLC using diode array detection. A C18 column (Phenomenex CHO-7878, 100×10 mm) was employed with an isocratic mobile phase (85% acetontrile in water, 3.5 mL/min) to yield tartrolon E (4.7 mg, retention time 8 min).

[3] = tested on: Plasmodium falciparum 3D7; assay: P. falciparum SYBR green flow cytometry assay; assay type: cell-based; details: 72 hours, read-out: EC50, proliferation of Plasmodium falciparum 3D7
Method: Plasmodium falciparum: Parasites were cultured in 96-well plates at 0.5% initial parasitemia. Parasites were cultured for 72 hours in the presence of dilutions of tartrolon D2, dihydroartemisinin (DHA, a drug for treating malaria as a positive control) or DMSO after which parasites were stained with SYBR green fluorescence and enumerated by flow cytometry. The assay was conducted once and all samples were run in triplicate. Data was analyzed with GraphPad Prism as described for T. gondii.

Toxoplasma gondii ME49 = assay: Bright-Glo luciferase assay of parasite proliferation in HFF cells; assay type: cell-based
Method: Human foreskin fibroblast (HFF) cells were established in 96-well plates, and then infected with ME49 parasites engineered to express green fluorescent protein and firefly luciferase (2.5 to 5×10^5/well). Eight hours after infection, dilutions of Tartrolon D1 isolated as in Example 3, Tartrolon D2 isolated as in Example 4, or vehicle (DMSO) at equivalent concentrations were added to infected cells and the plates incubated for 24 hours (37° C., 5% CO2). Proliferation of the parasites was then measured using Bright-Glo luciferase assay system (available from Promega). Samples were run in triplicate and three independent biological replicates were conducted. The log 10 [Tartrolon D] versus percent inhibition of parasite proliferation was analyzed using the four parameter variable slope analysis in Graphpad Prism.

C. parvum [4] = assay: Neonatal mouse model of C. parvum infection, histological scoring; assay type: in vivo, Cryptosporidium parvum; details: neonatal mice, 2 mg/kg/dose b.i.d. for 4 days, histological score
Method: To determine if tartrolon D/E would be effective in vivo, the purified compound(s) of the invention was tested in a neonatal mouse model of C. parvum infection (Schaefer D A et al. (2000) Infect Immun 68(5):2608-261). Eight-day old neonatal mice were infected with C. parvum oocysts (50 times the ID50) and treated with purified tartrolon D/E (specifically, D1) or vehicle as a starting material for 4 days at 2 mg/kg/dose (b.i.d). At the end of the study period, mice were sacrificed and histological sections of jejunum, ileum, colon and caecum were examined. Infection in each section was scored by an observer blinded as to the sample identity.

Babesia bovis = assay: SYBR green-based growth suppression assay in bovine red blood cells; assay type: cell-based; details: for EC50: SYBR green fluorescence, read-out: EC50 against B. bovis
Method: Purified tartrolon D/E (with starting materials being either D1 or D2) was tested against another apicomplexan pathogen, Babesia bovis, which proliferates in bovine red blood cells. Growth suppression of B. bovis was quantified using a modified SybrGreen-based assay (Molecular Probes, Life Sciences Technology). SYBR green is an asymmetrical cyanine dye that is used as a nucleic acid stain. In this assay, parasite replication in red blood cells is measured directly by the incorporation of SYBR green into parasite DNA. Tartrolon D/E concentrations ranging from 0.001 to 10,000 nM were tested on infected cells and DMSO (vehicle) was run in parallel as a negative control.

Sarcocystis neurona = assay: S. neurona luciferase proliferation assay in bovine turbinate cells; assay type: cell-based; details: BT cells, 96 hours
Method: Sarcocystis neurona: Bovine turbinate cells (BT cells, ATCC CRL-1390, American Type Culture Collection, Manassas, Va.) were seeded into 96-well plates and infected with S. neurona merozoites that had been engineered to express green fluorescent protein and firefly luciferase (2×10^4/well). Dilutions of tartrolon D2 or DMSO were added to the infected cells and the plates incubated for 96 hours (37° C., 5% CO2). After 96 hours, parasite proliferation was quantified and the data analyzed as described with T. gondii ME49. The assay was conducted once and all samples were run in triplicate.

Plasmodium berghei = assay: Plasmodium berghei-luciferase infection in mice, IVIS imaging; assay type: in vivo; details: 8 mg/kg intraperitoneal once per day for 5 days, imaged seven days after infection
Method: Mice were infected with Plasmodium berghei expressing luciferase. 48 hours post infection mice were treated with tartrolon D/E (specifically, D2) initially solubilized in 2% methylcellulose and 0.5% Tween80 by intraperitoneal injection for 5 days, once per day. Control mice were treated with vehicle alone. Seven days after infection, mice were given luciferase substrate (150 mg/kg D-luciferin Potassium salt in PBS (Goldbio)) and imaged in an IVIS Lumina II to quantify level of infection.

C. parvum [5] = assay: Neonatal mouse C. parvum infection, quantitative PCR of intestinal parasites; assay type: in vivo, Cryptosporidium parvum; details: neonatal mice, qPCR
Method: To confirm the in vivo activity against Cryptosporidium parvum, neonatal mice were infected with C. parvum (5×10^4 oocysts per mouse), and 24 hours after infection, the mice were dosed twice daily for 4 days with either 4 or 40 mg/kg of tartrolon D/E (specifically, D2) in starting concentrations. Day 5 post-infection, the mice were sacrificed, the intestines collected and total DNA extracted. Intestinal parasite numbers were quantified by quantitative PCR (qPCR) of the C. parvum HSP70 gene and extrapolation to a standard curve standard curve of known oocyst numbers (see Shahiduzzaman, et al., Vet Parasitol 167, 43-9 (2010)). At both the high and the low dose of Tartrolon D/E, nearly 100% of the parasites were eliminated from the intestine as measured by quantitative PCR.

Theileria equi = assay: T. equi growth in erythrocytes, hydroethidine flow cytometry; assay type: cell-based; details: Erythrocyte, 72 hours, averaged from three independent experiments, read-out: EC50, proliferation of Theileria equi
Method: Theileria equi: The effect of tartrolon D2 on T. equi growth in vitro was quantified using an assay that has been previously described by Hines, S. A. et al. (Parasit Vectors 8, 33 (2015)). Briefly, wells containing an erythrocyte concentration of 9% and a starting percentage parasitized erythrocyte (ppe) of 0.3% were established in 96-well plates. Parasites were cultured in the presence of tartrolon D2 or DMSO for 72 hours with a change of media and compound every 24 hours. After 72 hours, the parasites were stained with hydroethidine and enumerated by flow cytometry (FACSCaliber). Samples were run in triplicate and three independent experiments conducted. The data was analyzed and the EC50 values calculated as described above for T. gondii ME49.

[6] = cell line 3D7 (Netherlands, clone of NF54)
[7] = cell line Goan Isolate (Goa, India)

SMILES	Drug resistance phenotype (P. falciparum strains [1]; [6])	Drug resistance phenotype (P. falciparum strains [1]; cell line 7G8 (Brazil))	Drug resistance phenotype (P. falciparum strains [1]; cell line D6 (Sierra Leone))	Drug resistance phenotype (P. falciparum strains [1]; cell line Dd2 (SE Asia))	Drug resistance phenotype (P. falciparum strains [1]; [7])	Drug resistance phenotype (P. falciparum strains [1]; cell line HB3 (Honduras))	Drug resistance phenotype (P. falciparum strains [1]; cell line NF54 (Netherlands))	Drug resistance phenotype (P. falciparum strains [1]; cell line V1/S (Vietnam))	also measured
CC1(C)N=C(N)N=C(N)N1c1ccc(Cl)cc1 [Cycloguanil]	S	R	S	R	R	S	S	R	Drug resistance phenotype (P. falciparum strains [1]; cell line TM90C2A (Thailand)): R
C[C@H]1[C@@H](O)O[C@@H]2O[C@@]3(C)CC[C@H]4[C@H](C)CC[C@@H]1[C@@]24OO3 [Dihydroartemisinin, dihydroartemisinin]	–	–	–	–	–	–	–	–	EC50 (P. falciparum strains [2]; Plasmodium falciparum, 3D7, Erythrocyte, parasite line 3D7, read-out: EC50): 0.2 nM; EC50 (P. falciparum strains [2]; Plasmodium falciparum, DD2, Erythrocyte, parasite line Dd2, read-out: EC50): 0.14 nM; EC50 (P. falciparum strains [2]; Plasmodium falciparum, Erythrocyte, parasite line 7G8, read-out: EC50): 0.095 nM; EC50 (P. falciparum strains [2]; Plasmodium falciparum, Erythrocyte, parasite line 2012 Indian Isolate (Goa), read-out: EC50): 0.21 nM; EC50 (P. falciparum strains [2]; Plasmodium falciparum, Erythrocyte, parasite line D6, read-out: EC50): 0.17 nM; EC50 (P. falciparum strains [2]; Plasmodium falciparum, Erythrocyte, parasite line V1S, read-out: EC50): 0.084 nM; EC50 (P. falciparum strains [2]; Plasmodium falciparum, HB3, Erythrocyte, parasite line HB3, read-out: EC50): 0.16 nM; EC50 (P. falciparum strains [2]; Plasmodium falciparum, NF54, Erythrocyte, parasite line NF54, read-out: EC50): 0.15 nM; EC50 (P. falciparum strains [2]; Plasmodium falciparum, TM90C2A, Erythrocyte, parasite line TM90C2A, read-out: EC50): 0.091 nM; EC50 (P. falciparum strains [2]; parasite line 3D7, listed as Dihydroartemisinin (DHA), read-out: EC50): 0.11 nM; EC50 [3]: ~0.02 nM
OC(c1cc(C(F)(F)F)nc2c(C(F)(F)F)cccc12)C1CCCCN1 (stereo not shown) [Mefloquine]	S	S	S	R	S	S	S	S	Drug resistance phenotype (P. falciparum strains [1]; cell line TM90C2A (Thailand)): R
C=C[C@H]1C[N@@]2CC[C@H]1C[C@H]2[C@H](O)c1ccnc2ccc(OC)cc12 [Quinine]	S	R	S	R	–	S	S	R	–
COc1ncnc(NS(=O)(=O)c2ccc(N)cc2)c1OC [Sulfodoxine]	R	–	S	R	R	S	R	–	–
C[C@@H]1C(=O)C[C@@H](O)CC/C=C/C=C\CC[C@H](C)OC(=O)C(O)[C@]2(O)O[C@@H](CC[C@H]2C)[C@H](C)C(=O)C[C@@H](O)CC/C=C/C=C\CC[C@H](C)OC(=O)C(O)[C@]2(O)O[C@H]1CC[C@H]2C (stereo partly shown) [Tartrolon D1, tartrolon D]	–	–	–	–	–	–	–	–	EC50 (Toxoplasma gondii ME49; Toxoplasma gondii, HFF, read-out: EC50 against T. gondii ME49, added 8 h after infection, 24 hours, 3 independent experiments): 3.4 nM; inhibition of infection (C. parvum [4]): about 50%; concentration at which parasites did not incorporate any more fluorescence than uninfected red blood cells (Babesia bovis): more than 20 nM; EC50 (Babesia bovis; Babesia bovis, Erythrocyte): 11.2 nM
C[C@@H]1C(=O)C[C@@H](O)CC/C=C/C=C\CC[C@H](C)OC(=O)C(O)[C@]2(O)O[C@@H](CC[C@H]2C)[C@H](C)C(=O)C[C@@H](O)CC/C=C/C=C\CC[C@H](C)OC(=O)C(O)[C@]2(O)O[C@H]1CC[C@H]2C (stereo partly shown) [Tartrolon D2, tartrolon D]	–	–	–	–	–	–	–	–	EC50 (Sarcocystis neurona): ~13.2 nM; EC50 (Toxoplasma gondii ME49; read-out: EC50 against T. gondii ME49, added 8 h after infection, 24 hours, 3 independent experiments): 2.7 nM; P. berghei infection (luminescence) (Plasmodium berghei): reduced P. berghei infection; EC50 (Babesia bovis; listed as tartrolon D2/E): 16 nM; parasites eliminated from the intestine (C. parvum [5]; high dose 40 mg/kg twice daily for 4 days from 24 h after infection): ~100%; parasites eliminated from the intestine (C. parvum [5]; low dose 4 mg/kg twice daily for 4 days from 24 h after infection): ~100%; EC50 (Theileria equi): ~0.35 nM; EC50 [3]: ~0.105 nM
C[C@@H]1CCC2CC(=O)C[C@@H](O)CC/C=C/C=C\CC[C@H](C)OC(=O)[C@@H]3O[B-]45O[C@@H](C(=O)O[C@@H](C)CC/C=C\C=C\CC[C@H](O)CC(=O)CC6CC[C@@H](C)[C@]3(O6)O4)[C@@]1(O2)O5 [Tartrolon E, tartrolon E]	–	–	–	–	–	–	–	–	EC50 (P. falciparum strains [2]; strain Dd2, purified tartrolon E as starting material (FIG. 11C), read-out: EC50 against Dd2): ~0.16 nM
